IC50 and half-life data for 12 molecules are collected here from patent US10961242B2, “Compounds as autotaxin inhibitors and pharmaceutical compositions comprising the same” (LegoChem Biosciences, Inc., priority 2018, dated 2021).

Structures can show the parent of a compound that is named as a salt. Where two headings read alike, the source gives them in different places. Where only a bound is given, the exact number is not on record here.

In one data set the target is human ENPP2 (Homo sapiens (Human), UniProt Q13822). As to the kind of experiment: Inhibitory activity on human ENPP2 (FS-3 assay). Format: biochemical. The procedure:
Two-fold dilution of each test compound solution (10 μM, 100% dimethyl sulfoxide) is carried out on 96-well V bottom plate (Costar 3363). After ten-fold dilution of each the test compound solution (100% dimethyl sulfoxide) with deionized distilled water, 10 μL of the diluted each mpound solution (10% dimethyl sulfoxide) was aliquoted to a black flat bottom 96-well plate (Costar 3915).

In another data set the target is human ATX (Homo sapiens (Human), UniProt Q13822). As to the kind of experiment: Bis-pNPP assay. Format: biochemical. Particulars: bis-pNPP substrate, read-out: Enzymatic assay (IC50) bis-pNPP. Here is the method: Eight-fold dilution of each test compound solution (10 μM, 100% dimethyl sulfoxide) is carried out on 96-well V bottom plate (Costar 3363). After […] of each test compound solution (100% dimethyl sulfoxide) with deionized distilled water, 10 μL of the diluted each test compound solution (10% dimethyl sulfoxide) was aliquoted to a black flat bottom 96-well plate (Costar 3915). 50 μL of 60 mM Tris-HCl (pH9.0) buffer was added thereto, and subsequently 20 μL of 3.75 nM human ATX solution (buffer solution: 50 mM Tris-HCl (pH8.5), 5 mM CaCl2, 2.5 mM MgCl2, 0.01% Brij35) and 20 μL of 25 mM Bis-pNPP (bis(p-Nitrophenyl)-phosphate sodium salt) solution (buffer solution: 50 mM Tris-HCl (pH9.0)) were added thereto, respectively, followed by mixing. […] Furthermore, IC50 values that are shown in Table 3 were calculated using Grafit5 Software based on the inhibitory activity percentage ratio.

Data set [1] can be described thus: Microsomal stability, human liver microsomes. Format: in vitro ADME. The settings on record: both sexes, pH 7.4; human liver microsomes (h), 0.5 mg/mL, NADPH regenerating system; read-out: MS (microsomal stability) t1/2. The procedure: (§1) A 2.5 mM stock solution of test compound in DMSO is diluted to 25 uM with 100 mM potassium phosphate buffer (pH 7.4) containing 5 mM EDTA. This solution was mixed with reaction mixtures (final concentration 1 μM). The incubation mixtures (final volume 700 μL) of test compound with liver microsomes [Xenotech; rat (male SD), human (mixed gender)] consisted of liver microsomes (0.5 mg/mL), substrate (Compound 4, […]), NADPH regenerating system (1.3 mM NADP+, 3.3 mM Glucose-6-phosphate, 3.3 mM MgCl2, 0.4 U/ml Glucose-6-phosphate dehydrogenase) in 81.3 mM potassium phosphate buffer (pH 7.4) containing 1 mM EDTA in duplicates. The reaction was initiated by addition of the NADPH regenerating system after preincubation at 37° C. for 10 min with test compounds. 100 uL of aliquot of the sample was removed at 0, 5, 10, 20, 30 and 60 min. The reaction was stopped by addition of 200 uL of acetonitrile containing internal standard (0.3 uM of Dextromethorphan). Each sample was mixed and centrifuged at 14000 rpm for 10 min. The resulting supernatant was analyzed by the LC-MS/MS method for determination of loss of parent compound. % parent remaining was calculated at 6 point time testing was done for T½ determination.
(In general: Liver microsomes are a subcellular fraction often used to study metabolism.)

A short description of data set [2]: Microsomal stability, rat liver microsomes. Format: in vitro ADME. Particulars: male, SD, pH 7.4; rat liver microsomes (r), 0.5 mg/mL, NADPH regenerating system; read-out: MS (microsomal stability) t1/2. Here is the method:
as §1

In data set [3] the test system is LPA production in mouse plasma. As to the kind of experiment: Ex-vivo assay (LPC assay) in mouse plasma. It counts as biochemical. Particulars: LPA 18:1. The procedure: (§2) After 100-fold dilution of each test compound solution (5 μL) (10 mM, 100%, dimethyl sulfoxide) with 495 μL of methanol, 3 μL of the diluted methanol solution (1% dimethyl sulfoxide) was mixed with 57 μL of human or mouse blood serum solution in a 1.5 mL tube. The mixed test compound solution was serially diluted, 12 μL for each, with 48 μL of 100% blood serum to have 5 different concentrations, and each tube was kept for 15 minutes in a water bath with constant temperature of 37° C. Subsequently, a solution prepared by diluting 10 mg/mL 18:1 LPC solution (50% ethanol) with blood serum to have concentration of 375 μg/mL was aliquoted in an amount of 2 μL to each tube so as to have 50 μL. Each tube was kept for 3 hours in a water bath at 37° C. to allow a reaction. To the tube obtained after the reaction, 100 μL of 0.5 μM 17:0 LPA solution (chloroform/methanol/water=65/35/8) was aliquoted and mixed therein. Centrifuge was carried out for 10 minutes using a centrifuge at conditions of 14,000 rpm and 4° C. 100 μL of 50% methanol solution is aliquoted first to a 96-well polypropylene plate (Agilent Technology 5042-1385), and the supernatant (50 μL) in a tube after the centrifuge was carefully transferred to the plate followed by mixing. After covering it with Well cap (Thermo 276011), analysis was carried out by LC-MS/MS (Agilent 1260).
The test was carried out in the same process as Test example 2 to obtain the IC50 values in the following table 4.

In data set [4] the test system is LPA production in blood serum caused by autotoxin. The experiment in a line: Inhibitory activity on LPA production in mouse blood serum. Format: biochemical. The settings on record: mouse blood serum (m), 18:1 LPC, 3 hours at 37° C. The procedure: as §2, with “The mixed test compound solution was serially diluted, 12 μL for each, with 48 μL of 100% blood serum to have 5 different concentrations, and each tube was kept for 15 minutes in a water bath with constant temperature of 37° C.” left out
In the following Table 3, the mouse blood serum was described as (m) and human blood serum was described as (h).

Where [5] appears, read: FS-3 assay, same process as Test example 1, read-out: Enzymatic assay (IC50) FS-3.

`CCN(CC)c1nn(CC(=O)N2CCc3[nH]nnc3C2)cc1-c1cnc(NC2Cc3ccccc3C2)nc1` [Compound 106, 2-[3-(diethylamino)-4-{2-[(2,3-dihydro-1H-inden-2-yl)amino]pyrimidin-5-yl}-1H-pyrazol-1-yl]-1-{1H,4H,5H,6H,7H-[1,2,3]triazolo[4,5-c]pyridin-5-yl}ethan-1-one]: the IC50 came out at 2.57 nM at human ENPP2 (setting [5]) and 2.27 nM on human ATX. Also, the half-life at 1 µM in data set [1] was 4.2 min; in data set [2], 3.9 ± 0.03 min.

For `NNC(=O)C1=CCN(C(=O)Cc2nnc(-c3cnc(NC4Cc5ccccc5C4)nc3)o2)CC1` [Compound 120, 1-[2-(5-{2-[(2,3-dihydro-1H-inden-2-yl)amino]pyrimidin-5-yl}-1,3,4-oxadiazol-2-yl)acetyl]-1,2,3,6-tetrahydropyridine-4-carbohydrazide Hydrochloride], the half-maximal inhibitory concentration (IC50) at human ENPP2 amounted to 25.9 nM; at human ATX it was 380 nM.

With `O=C(CO)N1CCC(c2nn(CC(=O)N3CCc4[nH]nnc4C3)cc2-c2cnc(NC3Cc4ccccc4C3)nc2)CC1` [Compound 118, 1-[4-(4-{2-[(2,3-dihydro-1H-inden-2-yl)amino]pyrimidin-5-yl}-1-(2-oxo-2-{1H,4H,5H,6H,7H-[1,2,3]triazolo[4,5-c]pyridin-5-yl}ethyl)-1H-pyrazol-3-yl)piperidin-1-yl]-2-hydroxyethan-1-one], the results for the IC50 at human ENPP2 (setting [5]) and at human ATX were < 1.56 nM and 5.3 nM, respectively.

For `O=C(Cn1cc(-c2cnc(NC3Cc4ccccc4C3)nc2)c(C2CCNCC2)n1)N1CCc2[nH]nnc2C1` [Compound 98, 2-(4-{2-[(2,3-dihydro-1H-inden-2-yl)amino]pyrimidin-5-yl}-3-(piperidin-4-yl)-1H-pyrazol-1-yl)-1-{1H,4H,5H,6H,7H-[1,2,3]triazolo[4,5-c]pyridin-5-yl}ethan-1-one], the concentration for half-maximal inhibition (IC50) at human ENPP2 (setting [5]) was 9.39 nM; on human ATX it was < 1.56 nM. The half-life at 1 µM in data set [1] and in data set [2] was > 60 min throughout.

As to `O=C(Cc1cn(-c2ccc(Cl)cc2)c(-c2cnc(NC3Cc4ccccc4C3)nc2)n1)N1CCc2[nH]nnc2C1` [Compound 117, 2-[1-(4-chlorophenyl)-2-{2-[(2,3-dihydro-1H-inden-2-yl)amino]pyrimidin-5-yl}-1H-imidazol-4-yl]-1-{1H,4H,5H,6H,7H-[1,2,3]triazolo[4,5-c]pyridin-5-yl}ethan-1-one], the half-maximal inhibitory concentration (IC50) is 1.84 nM on human ENPP2 (setting [5]) and > 100 nM on human ATX.

Consider `O=C(CO)N1CCN(C(=O)Cn2cc(-c3cnc(NC4Cc5ccccc5C4)nc3)c(-c3ccncc3)n2)CC1` [Compound 115, 1-{4-[2-(4-{2-[(2,3-dihydro-1H-inden-2-yl)amino]pyrimidin-5-yl}-3-(pyridin-4-yl)-1H-pyrazol-1-yl)acetyl]piperazin-1-yl}-2-hydroxyethan-1-one], for which the IC50 on human ENPP2 (setting [5]) stood at 3.04 nM; on human ATX, 66.8 nM; in data set [3], 125 nM. Besides, the half-life at 1 µM in data set [1] and in data set [2] was > 60 min in each case.

Turning to `O=C(O)c1ccc(-c2nn(CC(=O)N3CCc4[nH]nnc4C3)cc2-c2cnc(NC3Cc4ccccc4C3)nc2)cc1` [Compound 119, 4-(4-{2-[(2,3-dihydro-1H-inden-2-yl)amino]pyrimidin-5-yl}-1-(2-oxo-2-{1H,4H,5H,6H,7H-[1,2,3]triazolo[4,5-c]pyridin-5-yl}ethyl)-1H-pyrazol-3-yl)benzoic Acid], the IC50 on human ENPP2 (setting [5]) is < 1.56 nM; at human ATX, 9.19 nM.

Take `O=C(Cn1cc(-c2cnc(NC3Cc4ccccc4C3)nc2)c(NC2CCC2)n1)N1CCc2[nH]nnc2C1` [Compound 100, 2-[3-(cyclobutylamino)-4-{2-[(2,3-dihydro-1H-inden-2-yl)amino]pyrimidin-5-yl}-1H-pyrazol-1-yl]-1-{1H,4H,5H,6H,7H-[1,2,3]triazolo[4,5-c]pyridin-5-yl}ethan-1-one]: the IC50 at human ENPP2 (setting [5]) amounted to 1.74 nM; on human ATX, 3.6 nM. In addition, the half-life at 1 µM in data set [1] stood at 16.4 min; in data set [2], 10.3 ± 0.72 min.

Consider `Cc1nc(-c2cnc(NC3Cc4ccccc4C3)nc2)cn1CC(=O)N1CCc2[nH]nnc2C1` [Compound 107, 2-(4-{2-[(2,3-dihydro-1H-inden-2-yl)amino]pyrimidin-5-yl}-2-methyl-1H-imidazol-1-yl)-1-{1H,4H,5H,6H,7H-[1,2,3]triazolo[4,5-c]pyridin-5-yl}ethan-1-one], for which the half-maximal inhibitory concentration (IC50) on human ENPP2 (setting [5]) came out at 1.56 nM; on human ATX, 4.87 nM.

Regarding `O=C(Cn1cc(-c2cnc(NC3Cc4ccccc4C3)nc2)c(-c2ccccn2)n1)N1CCc2[nH]nnc2C1` [Compound 116, 2-(4-{2-[(2,3-dihydro-1H-inden-2-yl)amino]pyrimidin-5-yl}-3-(pyridin-2-yl)-1H-pyrazol-1-yl)-1-{1H,4H,5H,6H,7H-[1,2,3]triazolo[4,5-c]pyridin-5-yl}ethan-1-one], the IC50 on human ENPP2 (setting [5]) was < 1.56 nM; at human ATX it was < 1.56 nM; in data set [3], 7.1 nM. Besides, the half-life at 1 µM in data set [1] was 33 min; in data set [2], 25.2 ± 0.69 min.

On to `NC1CCC(c2nn(CC(=O)N3CCc4[nH]nnc4C3)cc2-c2cnc(NC3Cc4ccccc4C3)nc2)CC1` (stereo not drawn) [Compound 99, 2-[3-(4-aminocyclohexyl)-4-{2-[(2,3-dihydro-1H-inden-2-yl)amino]pyrimidin-5-yl}-1H-pyrazol-1-yl]-1-{1H,4H,5H,6H,7H-[1,2,3]triazolo[4,5-c]pyridin-5-yl}ethan-1-one], for which the half-inhibitory concentration (IC50) on human ENPP2 (setting [5]) worked out at 2.8 nM; on human ATX it was 5.59 nM.

`CC(C)(CN1CCc2[nH]nnc2C1)C(=O)N1CCN(c2cnc(NC3Cc4ccccc4C3)nc2)CC1` [Compound 19, 1-(4-{2-[(2,3-dihydro-1H-inden-2-yl)amino]pyrimidin-5-yl}piperazin-1-yl)-2,2-dimethyl-3-{1H,4H,5H,6H,7H-[1,2,3]triazolo[4,5-c]pyridin-5-yl}propan-1-one]: the IC50 on human ENPP2 (human ENPP2, FS-3 substrate, 30 min at 37° C., read-out: IC50) came to 3.1 nM; in data set [4], 25 nM.

As a reminder, the IC50 is the concentration that gives 50% inhibition.
